The assay deals with T1, BTK (Homo sapiens, UniProt Q06187).
T1 construct: purchased Upstate 14-552
Nature of the assay: In vitro BTK kinase assay: BTK-POLYGAT-LS ASSAY. In kind it is biochemical. The settings on record: ATP 10 uM. How it is done:
In vitro BTK kinase assay: BTK-POLYGAT-LS ASSAY. The purpose of the BTK in vitro assay is to determine compound potency against BTK through the measurement of IC50. […] A 24 μL aliquot of a ATP/peptide master mix (final concentration; ATP 10 μM, polyGAT 100 nM) in kinase buffer (10 mM Tris-HCl pH 7.5, 10 mM MgCl2, 200 μM Na3VO4, 5 mM DTT, 0.01% Triton X-100, and 0.2 mg/ml Casein) is added to each well. […] The assay is incubated for 30 minutes before being stopped with 28 μL of a 50 mM EDTA solution. […] The plate is covered and incubated for 45 minutes at room temperature. Time resolved fluorescence (TRF) on Molecular Devices M5 (332 nm excitation; 488 nm emission; 518 nm fluorescein emission) is measured.

From US9029359B2, “Heteroaryl Btk inhibitors” (Biogen Idec MA, Inc., priority 2009, dated 2015) come the findings set out here.

One may read the pIC50 as the negative decadic logarithm of the IC50, by convention in mol/L. Low readings indicate a large IC50, high ones a small IC50.

The structures appear in SMILES notation. pIC50: −log10 of the molar value.

T1 sequence (Q06187 whole entry): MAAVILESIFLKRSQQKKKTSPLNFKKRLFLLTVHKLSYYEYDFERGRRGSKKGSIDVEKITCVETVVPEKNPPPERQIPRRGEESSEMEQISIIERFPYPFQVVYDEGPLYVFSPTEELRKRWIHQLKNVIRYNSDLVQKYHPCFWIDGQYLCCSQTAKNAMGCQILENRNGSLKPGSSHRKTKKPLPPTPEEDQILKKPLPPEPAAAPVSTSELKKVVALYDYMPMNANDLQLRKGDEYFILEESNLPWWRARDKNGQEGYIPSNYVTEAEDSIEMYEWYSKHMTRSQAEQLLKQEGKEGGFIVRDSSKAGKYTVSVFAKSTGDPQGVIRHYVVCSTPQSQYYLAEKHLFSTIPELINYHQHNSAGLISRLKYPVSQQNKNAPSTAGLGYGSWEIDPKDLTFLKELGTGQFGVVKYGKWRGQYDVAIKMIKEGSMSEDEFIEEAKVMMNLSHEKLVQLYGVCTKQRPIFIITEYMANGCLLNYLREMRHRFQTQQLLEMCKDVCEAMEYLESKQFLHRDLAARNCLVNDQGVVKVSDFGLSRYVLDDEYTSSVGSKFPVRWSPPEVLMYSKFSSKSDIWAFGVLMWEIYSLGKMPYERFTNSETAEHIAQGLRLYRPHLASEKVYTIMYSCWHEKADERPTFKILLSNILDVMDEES

In turn, `O=C(N[C@@H]1CCCN(c2ncnc3[nH]ccc23)C1)[C@H](Nc1cc(F)cc(F)c1)C1CC1` [Example 120, (R)—N—((R)-1-(7H-pyrrolo[2,3-d]pyrimidin-4-yl)piperidin-3-yl)-2-cyclopropyl-2-(3,5-difluorophenylamino)acetamide] gave a pIC50 of more than 7.00.
In the case of `Cc1ccc(F)c(NCC(=O)N[C@@H]2CCCN(c3ncnc4[nH]ccc34)C2)c1` [Example 386] it was 6.00 to 7.00.
In the case of `O=C(CNc1cccnc1)NC1CCCN(c2ncnc3[nH]ccc23)C1` (stereo not drawn) [Example 59, (N-(1-(7H-pyrrolo[2,3-d]pyrimidin-4-yl)piperidin-3-yl)-2-(pyridin-3-ylamino)acetamide)] it was less than 5.00; in that of `CC(C)c1ccccc1N[C@@H](C(=O)N[C@@H]1CCCN(c2ncnc3[nH]ccc23)C1)[C@H](C)O` [Example 239], 6.00 to 7.00.
As for `COc1cccc(NCC(=O)NC2CCCN(c3ncnc4[nH]ccc34)C2)c1` (stereo not drawn) [Example 32, (N-(1-(7H-pyrrolo[2,3-d]pyrimidin-4-yl)piperidin-3-yl)-2-(3-methoxyphenylamino)acetamide)], the pIC50 was 6.00 to 7.00.
For the compound `Cc1cc(C)c(NCC(=O)N[C@@H]2CCCN(c3ncnc4[nH]ccc34)C2)c(C)c1` [Example 428], the pIC50 is 5.00 to 6.00.
Compound `O=C(CNc1cc(F)cc(F)c1)NC1CCCN(c2ncnc3[nH]ccc23)C1` (stereo not drawn) [Example 68, (N-(1-(7H-pyrrolo[2,3-d]pyrimidin-4-yl)piperidin-3-yl)-2-(3,5-difluorophenylamino)acetamide)] showed a pIC50 of more than 7.00.
With `CC(C)n1ccc(NCC(=O)NC2CCCN(c3ncnc4[nH]ccc34)C2)n1` (stereo not drawn) [Example 331], the pIC50 was less than 5.00.
Next, `CCCN(CC)S(=O)(=O)c1ccccc1NCC(=O)N[C@@H]1CCCN(c2ncnc3[nH]ncc23)C1` [Example 172]: more than 7.00; `CN(C(C)(C)C)S(=O)(=O)c1ccccc1NCC(=O)N[C@@H]1CCCN(c2ncnc3[nH]ncc23)C1` [Example 368]: 6.00 to 7.00; `O=C(CNc1cc(F)c(F)cc1F)N[C@@H]1CCCN(c2ncnc3[nH]ccc23)C1` [Example 453]: 6.00 to 7.00.
In the case of `O=C(CNc1ccccc1C(=O)N1CCOCC1)N[C@@H]1CCCN(c2ncnc3[nH]ccc23)C1` [Example 374] it was 6.00 to 7.00; in that of `O=C(NC1CCCCN(c2ncnc3[nH]ncc23)C1)[C@H](Nc1cc(Cl)cc(Cl)c1)C1CC1` (stereo partly drawn) [Example 364], more than 7.00; in that of `O=C1CCc2c(ncnc2N2CCC[C@@H](NC(=O)[C@H](Nc3cc(F)cc(Cl)c3)C3CC3)C2)N1` [Example 135, (R)-2-(3-chloro-5-fluorophenylamino)-2-cyclopropyl-N—((R)-1-(7-oxo-5,6,7,8-tetrahydropyrido[2,3-d]pyrimidin-4-yl)piperidin-3-yl)acetamide], 6.00 to 7.00.
In the case of `Cc1ccc(Cl)c(NCC(=O)N[C@@H]2CCCN(c3ncnc4[nH]ccc34)C2)c1` [Example 313] it was 6.00 to 7.00; in that of `O=C(CNc1cccc(N2CCCC2=O)c1)NC1CCCN(c2ncnc3[nH]ccc23)C1` (stereo not drawn) [Example 338], 5.00 to 6.00; in that of `CCC[C@@H](Nc1ccccc1C(C)C)C(=O)N[C@@H]1CCCN(c2ncnc3[nH]ccc23)C1` [Example 279], 6.00 to 7.00.
In turn, `Cc1c(O)cccc1NCC(=O)N[C@@H]1CCCN(c2ncnc3[nH]ccc23)C1` [Example 398] had a pIC50 of 5.00 to 6.00.
Consider `CC(C)c1ccccc1N[C@H](C)C(=O)N[C@@H]1CCCN(c2ncnc3[nH]ccc23)C1` [Example 269], for which the pIC50 is 6.00 to 7.00.
Next, `COc1cccc(NCC(=O)N[C@@H]2CCCN(c3ncnc4[nH]ccc34)C2)c1` [Example 322]: 6.00 to 7.00.
In the case of `O=C(CNc1cccc(F)c1F)NC1CCCN(c2ncnc3[nH]ccc23)C1` (stereo not drawn) [Example 71, (N-(1-(7H-pyrrolo[2,3-d]pyrimidin-4-yl)piperidin-3-yl)-2-(2,3-difluorophenylamino)acetamide)] it was 6.00 to 7.00; in that of `O=C(CNc1cccc(-c2nnco2)c1)NC1CCCN(c2ncnc3[nH]ccc23)C1` (stereo not drawn) [Example 349], less than 5.00.
In the case of `O=C(CNC(=O)c1ccc(Cl)cc1)NC1CCCN(c2ncnc3[nH]ccc23)C1` (stereo not drawn) [Example 94, (N-(2-(1-(7H-pyrrolo[2,3-d]pyrimidin-4-yl)piperidin-3-ylamino)-2-oxoethyl)-4-chlorobenzamide)] it was 5.00 to 6.00; in that of `O=C(CNc1ccccc1S(=O)(=O)N1CCOCC1)N[C@@H]1CCCN(c2ncnc3[nH]ncc23)C1` [Example 242], more than 7.00.
Turning to `O=C(CNc1ccc(F)c(F)c1F)N[C@@H]1CCCN(c2ncnc3[nH]ccc23)C1` [Example 445], the pIC50 is 6.00 to 7.00.
As for `Cc1c(NCC(=O)NC2CCCN(c3ncnc4[nH]ccc34)C2)cccc1C(F)(F)F` (stereo not drawn) [Example 64, (N-(1-(7H-pyrrolo[2,3-d]pyrimidin-4-yl)piperidin-3-yl)-2-(2-methyl-3-(trifluoromethyl)phenylamino)acetamide)], the pIC50 was 6.00 to 7.00.
Regarding `CC1CCCCN1S(=O)(=O)c1ccccc1NCC(=O)N[C@@H]1CCCN(c2ncnc3[nH]ncc23)C1` (stereo partly drawn) [Example 214], the pIC50 was more than 7.00.
In the case of `CN(C(=O)CNc1ccccc1)C1CCCN(c2ncnc3[nH]ccc23)C1` (stereo not drawn) [Example 223] it was 6.00 to 7.00; in that of `CCC[C@@H](Nc1cc(F)cc(Cl)c1)C(=O)N[C@@H]1CCCN(c2ncnc3[nH]ncc23)C1` [Example 168], more than 7.00; in that of `O=C(CNc1ccccc1S(=O)(=O)N1CCCCC1)NC1CCCCN(c2ncnc3[nH]ncc23)C1` (stereo not drawn) [Example 170], more than 7.00.
In turn, `O=C(CNC1CCCc2ccccc21)NC1CCCN(c2ncnc3[nH]ccc23)C1` (stereo not drawn) [Example 356] showed a pIC50 of less than 5.00.
Next, `O=C(CNc1cccc(-c2cn3ccccc3n2)c1)N[C@@H]1CCCN(c2ncnc3[nH]ccc23)C1` [Example 304]: 6.00 to 7.00; `CC1CC(C)CN(S(=O)(=O)c2ccccc2NCC(=O)N[C@@H]2CCCN(c3ncnc4[nH]ncc34)C2)C1` (stereo partly drawn) [Example 224]: more than 7.00.
Next, `C[C@@H](O)[C@@H](Nc1ccccc1)C(=O)N[C@@H]1CCCN(c2ncnc3[nH]ccc23)C1` [Example 110, (2R,3R)—N—((R)-1-(7H-pyrrolo[2,3-d]pyrimidin-4-yl)piperidin-3-yl)-3-hydroxy-2-(phenylamino)butanamide]: 6.00 to 7.00; `CC(C)c1ccccc1N[C@@H](C(=O)N[C@@H]1CCCN(c2ncnc3[nH]ccc23)C1)C1CC1` [Example 284]: 6.00 to 7.00.
Turning to `C[C@@H](O)[C@@H](Nc1cc(Cl)cc(Cl)c1)C(=O)N[C@@H]1CCCN(c2ncnc3[nH]ncc23)C1` [Example 164], the negative-log IC50 (pIC50) is more than 7.00.
With `Cc1ccc(NCC(=O)NC2CCCN(c3ncnc4[nH]ccc34)C2)cc1C(F)(F)F` (stereo not drawn) [Example 65, (N-(1-(7H-pyrrolo[2,3-d]pyrimidin-4-yl)piperidin-3-yl)-2-(4-methyl-3-(trifluoromethyl)phenylamino)acetamide)], the pIC50 is 6.00 to 7.00.
In the case of `O=C(CNc1ccccc1-n1cccn1)N[C@@H]1CCCN(c2ncnc3[nH]ccc23)C1` [Example 381] it was 5.00 to 6.00; in that of `O=C(N[C@@H]1CCCN(c2ncnc3[nH]ccc23)C1)[C@@H](Cc1ccccc1)Nc1ccccc1` [Example 104, (R)—N—((R)-1-(7H-pyrrolo[2,3-d]pyrimidin-4-yl)piperidin-3-yl)-3-phenyl-2-(phenylamino)propanamide], 5.00 to 6.00.
